Laboratory results published in patent US20240391948A1, “NOVEL COMPOUND THAT INHIBITS TNF-ALPHA GENERATION AND INFLAMMASOME ACTIVITY AND PREPARATION METHOD THEREFOR” (SHAPERON INC., priority 2021, published 2024).

Legend:
Format in all cases: cell-based
[1] = tested on: J774A.1 (Mouse BALB/c monocyte macrophage cell line) cells; assay: LPS-induced TNF-α secretion inhibition in J774A.1 cells; conditions: J774.A1, 1 μM compound, graded compared to taurodeoxycholic acid (positive control), read-out: TNF-α production inhibition grade
Description: (§1) To evaluate anti-inflammatory efficacy, an inflammatory response was induced in J774A.1 (Mouse BALB/c monocyte macrophage cell line) cells derived from mouse macrophages by LPS (lipopolysaccharide) and LPS+ATP (adenosine triphosphate), and the efficacy of taurine-bile acid derivatives to inhibit the production of inflammatory cytokines (IL-1β, TNF-α) was measured. After treating J774A.1 cells with 1 μM of a taurine-bile acid derivative, the degree to which the secretion of TNF-α among cytokines was suppressed was measured in the experimental group in which an inflammatory response was induced by LPS, and the extent to which IL-1β secretion among cytokines was suppressed was measured in the experimental group in which an inflammatory response was induced with LPS+ATP. The ability of taurine-bile acid derivatives to inhibit cytokine production was graded compared to taurodeoxycholic acid, a positive control. The grading criteria are A: over 100%, B: over 50% and under 100%, C: between 20% and under 50%, and D: under 20%.

[2] = tested on: J774A.1 (Mouse BALB/c monocyte macrophage cell line) cells; assay: LPS+ATP-induced IL-1β secretion inhibition in J774A.1 cells; conditions: J774.A1, 1 μM compound, graded compared to taurodeoxycholic acid (positive control), read-out: IL-1β production inhibition grade
Description: as §1

[3] = tested on: U937 cells (human monocytic cell line); assay: Pam2CSK4-induced TNF-α secretion inhibition in PMA-differentiated U937 cells; conditions: U-937, U937 cells differentiated with PMA, read-out: TNF-α production inhibition grade (IC50)
Description: (§2) To evaluate anti-inflammatory efficacy, U937 cells (human monocytic cell line) were differentiated into macrophages using PMA (phorbol 12-myristate 13-acetate) and then induced an inflammatory response with Pam2CSK4 (Pam2CysSerLys4) or BzATP (2′(3′)—O-(4-Benzoylbenzoyl)adenosine 5′-triphosphate), the efficacy of taurine-bile acid derivatives in suppressing inflammatory cytokine (IL-1β, TNF-α) production was measured.
(§3) Using PMA, U937 cells were differentiated into macrophages, and the extent of TNF-α secretion inhibition was measured in an experimental group where taurine-bile acid derivatives was treated, followed by induction of inflammatory response with Pam2CSK4, and in the experimental group in which an inflammatory response was induced with BzATP, the extent to which IL-1β secretion among cytokines was suppressed was measured.
(§4) The ability of taurine-bile acid derivatives to inhibit cytokine production was expressed in terms of IC50 (μM) values. The standards for TNF α inhibition ability are A: less than 0.5, B: 0.5 to less than 1.0, C: 1.0 to less than 2.0, D: 2.0 or more, and the IL-1β inhibition ability grade standards are A: less than 0.05, B: 0.05 to less than 0.10, C: 0.10 or more and less than 0.20, D: 0.20 or more.

[4] = tested on: U937 cells (human monocytic cell line); assay: BzATP-induced IL-1β secretion inhibition in PMA-differentiated U937 cells; conditions: U-937, U937 cells differentiated with PMA, read-out: IL-1β production inhibition grade (IC50)
Description: as §2, §3, §4

Row | SMILES | inhibition at 1 µM [1] [%] | inhibition at 1 µM [2] [%] | IC50 [3] [nM] | IC50 [4] [nM]
1 | C[C@H](CS(=O)(=O)O)NC(=O)CC[C@@H](C)[C@H]1CC[C@H]2[C@@H]3[C@H](O)C[C@@H]4C[C@H](O)CC[C@]4(C)[C@H]3C[C@H](O)[C@]12C [NC20029] | < 20 | < 20 | < 500 | 50 to 100
2 | CC(C)C[C@H](CS(=O)(=O)O)NC(=O)CC[C@@H](C)[C@H]1CC[C@H]2[C@@H]3CC[C@@H]4C[C@H](O)CC[C@]4(C)[C@H]3CC[C@]12C [NC10087] | > 100 | > 100 | 500 to 1000 | < 50
3 | CC[C@H]1[C@@H](O)[C@@H]2[C@H](C[C@H](O)[C@]3(C)[C@@H]([C@H](C)CCC(=O)N[C@H](CS(=O)(=O)O)c4ccccc4)CC[C@@H]23)[C@@]2(C)CC[C@@H](O)C[C@@H]12 [NC50018] | < 20 | 50 to 100 | ≥ 2000 | 50 to 100
4 | C[C@H](CCC(=O)Nc1ccc(S(=O)(=O)O)cc1)[C@H]1CC[C@H]2[C@@H]3CC[C@@H]4C[C@H](O)CC[C@]4(C)[C@H]3C[C@H](O)[C@]12C [NC10003] | > 100 | > 100 | < 500 | < 50
5 | C[C@H](CCC(=O)N(CCS(=O)(=O)O)Cc1cccnc1)[C@H]1CC[C@H]2[C@@H]3CC[C@@H]4C[C@H](O)CC[C@]4(C)[C@H]3C[C@H](O)[C@]12C [NC10051] | < 20 | 50 to 100 | 1000 to 2000 | 50 to 100
6 | CC[C@H]1[C@@H](O)[C@@H]2[C@H](CC[C@]3(C)[C@@H]([C@H](C)CCC(=O)N(CCO)CCS(=O)(=O)O)CC[C@@H]23)[C@@]2(C)CC[C@@H](O)C[C@@H]12 [NC40006] | 20 to 50 | 50 to 100 | 1000 to 2000 | ≥ 200
7 | CC[C@H]1[C@@H](O)[C@@H]2[C@H](C[C@H](O)[C@]3(C)[C@@H]([C@H](C)CCC(=O)N(C)CCS(=O)(=O)O)CC[C@@H]23)[C@@]2(C)CC[C@@H](O)C[C@@H]12 [NC50004] | < 20 | < 20 | ≥ 2000 | 100 to 200
8 | C[C@H](CCC(=O)NCCC(=O)O)[C@H]1CC[C@H]2[C@@H]3[C@H](O)C[C@@H]4C[C@H](O)CC[C@]4(C)[C@H]3C[C@H](O)[C@]12C [NC20002] | 50 to 100 | 50 to 100 | ≥ 2000 | 100 to 200
9 | C[C@H](CCC(=O)N(C)CCS(=O)(=O)O)[C@H]1CC[C@H]2[C@@H]3CC[C@@H]4C[C@H](O)CC[C@]4(C)[C@H]3CC[C@]12C [NC10055] | < 20 | 50 to 100 | 1000 to 2000 | < 50
10 | C[C@H](CCC(=O)NCCC(=O)O)[C@H]1CC[C@H]2[C@@H]3CC[C@@H]4C[C@H](O)CC[C@]4(C)[C@H]3CC[C@]12C [NC10053] | 50 to 100 | 50 to 100 | 1000 to 2000 | 50 to 100
11 | C[C@H](CCC(=O)N[C@@H](Cc1ccccc1)CS(=O)(=O)O)[C@H]1CC[C@H]2[C@@H]3CC[C@@H]4C[C@H](O)CC[C@]4(C)[C@H]3CC[C@]12C [NC10065] | < 20 | > 100 | 1000 to 2000 | 100 to 200
12 | C[C@H](CCC(=O)N1CCC(CCS(=O)(=O)O)CC1)[C@H]1CC[C@H]2[C@@H]3CC[C@@H]4C[C@H](O)CC[C@]4(C)[C@H]3C[C@H](O)[C@]12C [NC10008] | > 100 | > 100 | < 500 | < 50
13 | CC[C@H]1[C@@H](O)[C@@H]2[C@H](CC[C@]3(C)[C@@H]([C@H](C)CCC(=O)N[C@@H](CS(=O)(=O)O)C(C)C)CC[C@@H]23)[C@@]2(C)CC[C@@H](O)C[C@@H]12 [NC40017] | < 20 | 20 to 50 | 500 to 1000 | ≥ 200
14 | C[C@H](CCC(=O)N1CCC[C@H](S(=O)(=O)O)C1)[C@H]1CC[C@H]2[C@@H]3CC[C@@H]4C[C@H](O)CC[C@]4(C)[C@H]3C[C@H](O)[C@]12C [NC10026] | < 20 | > 100 | 1000 to 2000 | < 50
15 | CC(C)C[C@@H](CS(=O)(=O)O)NC(=O)CC[C@@H](C)[C@H]1CC[C@H]2[C@@H]3CC[C@@H]4C[C@H](O)CC[C@]4(C)[C@H]3C[C@H](O)[C@]12C [NC10045] | < 20 | 50 to 100 | < 500 | 50 to 100
16 | CC[C@H]1[C@@H](O)[C@@H]2[C@H](C[C@H](O)[C@]3(C)[C@@H]([C@H](C)CCC(=O)N[C@H](C)CS(=O)(=O)O)CC[C@@H]23)[C@@]2(C)CC[C@@H](O)C[C@@H]12 [NC50029] | < 20 | 50 to 100 | 500 to 1000 | ≥ 200
17 | CC[C@H]1[C@@H](O)[C@@H]2[C@H](CC[C@]3(C)[C@@H]([C@H](C)CCC(=O)N4CCC(S(=O)(=O)O)CC4)CC[C@@H]23)[C@@]2(C)CC[C@@H](O)C[C@@H]12 [NC40011] | < 20 | 20 to 50 | 500 to 1000 | ≥ 200
18 | C[C@H](CCC(=O)N(CCS(=O)(=O)O)c1ccccc1)[C@H]1CC[C@H]2[C@@H]3CC[C@@H]4CC(=O)CC[C@]4(C)[C@H]3CC[C@]12C [NC30037] | 20 to 50 | > 100 | ≥ 2000 | < 50
19 | C[C@H](CCC(=O)N1CCN(C)CC1)[C@H]1CC[C@H]2[C@@H]3CC[C@@H]4C[C@H](O)CC[C@]4(C)[C@H]3C[C@H](O)[C@]12C [NC10019] | < 20 | 20 to 50 | 500 to 1000 | ≥ 200
20 | C[C@H](CCC(=O)N[C@@H](C)CS(=O)(=O)O)[C@H]1CC[C@H]2[C@@H]3[C@H](O)C[C@@H]4C[C@H](O)CC[C@]4(C)[C@H]3C[C@H](O)[C@]12C [NC20028] | < 20 | < 20 | 1000 to 2000 | ≥ 200
21 | C[C@H](CCC(=O)NCCCS(=O)(=O)O)[C@H]1CC[C@H]2[C@@H]3CC[C@@H]4C[C@H](O)CC[C@]4(C)[C@H]3C[C@H](O)[C@]12C [NC10002] | > 100 | > 100 | < 500 | < 50
22 | CCN(CC)CCNC(=O)CC[C@@H](C)[C@H]1CC[C@H]2[C@@H]3CC[C@@H]4C[C@H](O)CC[C@]4(C)[C@H]3C[C@H](O)[C@]12C [NC10017] | > 100 | > 100 | 500 to 1000 | < 50
23 | C[C@H](CCC(=O)N[C@H](CS(=O)(=O)O)c1ccccc1)[C@H]1CC[C@H]2[C@@H]3[C@H](O)C[C@@H]4C[C@H](O)CC[C@]4(C)[C@H]3C[C@H](O)[C@]12C [NC20018] | < 20 | < 20 | 1000 to 2000 | ≥ 200
